Measurements taken from paper PMC2374394, “Relationships between hydrophobicity, reactivity, accumulation and peripheral nerve toxicity of a series of platinum drugs” (British Journal of Cancer, 2000).
“And” between values parts separate entries of the source, which are not always exact repeats. Identical values can stand only once. Like-named read-outs stand apart in the source and are kept apart here.

Columns and labels:
patients = details: cited from earlier work
[1] = Hydrophobicity (log kw), reverse-phase HPLC coupled to ICP-MS; assay type: physicochemical; details: HPLC C8 column, actual or projected mobile phase 100% water; determinants from independent experiments
female Wistar rats [2] = tested on: female Wistar rats
Description: Neurotoxicity was detected by measuring sensory nerve conduction velocity (SNCV) in Wistar rats treated twice per week at the maximum tolerated dose. […] Animals and treatment Age-matched inbred female Wistar rats were used. Animals were allowed to acclimatize for 2 weeks before the start of the experiment. The animals were 10 weeks old and weighed 210- 240 g at the start of experiment. Platinum compounds (except JM216) were dissolved in sterile 0.9% (w/v) NaCl (Baxter Healthcare, New Zealand) by vortex mixing and sonication at an injection volume of 10 ml kg-1 . The platinum compounds (except JM216) were given by intraperitoneal injection on a twice per week dosing schedule at intervals of 3-4 days and the treatment was repeated weekly for a total of 8 weeks. […] Animals were weighed twice a week and checked for signs of toxicity daily. Animals showing signs of distress were immediately and painlessly killed. Animals had continuous access to food and water. […] Hypnorm (fluanisone 10 mg ml-1 , fentanyl citrate 0.3 mg ml-1 , Jansen Pharmaceuticals, Sydney, Australia) diluted 1:1 with sterile water was given by intramuscular injection to provide light anaesthesia. Responses were evoked by stimu- lating the sciatic nerve at the sciatic notch and the tibial nerve at the ankle of the left hind limb using percutaneous needle elec- trodes.

plasma proteins [3] = tested on: plasma proteins; parameters: method as in van der Vijgh and Klein, 1986; details: ref van der Vijgh and Klein, 1986; cited from earlier work
[4] = Hydrophobicity (log P), octanol-saline shake-flask method; details: n-octanol / 0.9% NaCl shake-flask, platinum by ICP-MS, mean (n = 5)
female Wistar rats [5] = details: cited from earlier work
plasma proteins [6] = tested on: plasma proteins
[7] = female Wistar rats, twice per week dosing schedule at the MTD, intraperitoneal
[8] = female Wistar rats, twice per week dosing schedule at the MTD, same protocol (JM216 by oral gavage), previous results ref McKeage et al, 1994, Screnci et al, 1997
[9] = rat plasma, 37C, initial half-life by one-phase exponential decay

SMILES: N[C@@H]1CCCC[C@H]1N.[Cl][Pt+2]([Cl])([Cl])[Cl] (racemic) [Ormaplatin, rac-(DACH)PtCl4]
- Incidence of neurotoxicity in patients % (95% CI) (patients; ref Schilder et al, 1994, O'Rourke et al, 1998): 87 (47-100) %
- Log kw [1]: 0.40 and 0.41
- Neurotoxic potency (cumulative dose causing altered SNCV) (female Wistar rats [2]; female Wistar rats, repeated treatment twice per week at the MTD, intraperitoneal): 26.0
- Time to development of altered SNCV (female Wistar rats [2]; [7]): 6.0 weeks

SMILES: N.N.O=C([O-])C1(C(=O)[O-])CCC1.[Pt+2] [Carboplatin]
- Incidence of neurotoxicity in patients % (95% CI) (patients; ref Canetta et al, 1985): 5.8 (3.8-8.5) %
- t (h), half-life of binding to plasma proteins in vitro (plasma proteins [3]): 48.6 h
- Log kw [1]: 0.20
- Log P [4]: -2.3
- Log P ([4]; listed as carboplatin): -2.30
- Time to development of altered SNCV (female Wistar rats [2]; [7]): 8.0 weeks

SMILES: N.N.[Cl][Pt][Cl] [Cisplatin]
- Time to development of altered SNCV (female Wistar rats [2]; rat, in vivo, ip): 7.0 weeks

SMILES: CC(=O)[O][Pt]([NH2])([Cl])([Cl])([NH]C1CCCCC1)[O]C(C)=O [JM216, bis-acetato-ammine-dichloro-cyclohexylamine-platinum(IV)]
- Incidence of neurotoxicity in patients % (95% CI) (patients; ref Judson et al, 1997): 5.6 (0-27) %
- Time to development of altered SNCV (female Wistar rats [5]; [8]): > 20.5 weeks
- Log kw [1]: 2.27 and 2.40
- Log P [4]: -0.16
- t (h), half-life of binding to plasma proteins in vitro (plasma proteins [6]; [9]): 65 h

SMILES: O=C1[O][Pt-2]2([NH2+]C3CCCC[C@H]3[NH2+]2)[O]C1=O (stereo partly drawn) [Oxaliplatin, R,R-(DACH)Pt(oxalato)]
- Time to development of altered SNCV (female Wistar rats [5]; [8]): 3.0 weeks
- Log kw [1]: 0.44 and 0.45

SMILES: NC1CCCCC1N.[Cl-].[Cl-].[Cl-].[Cl-].[Pt+4] (stereo not drawn) [R,R-(DACH)PtCl4]
- Time to development of altered SNCV (female Wistar rats [5]; rat, in vivo, po): 4.0 weeks
- Log kw [1]: 0.40 and 0.42
- t (h), half-life of binding to plasma proteins in vitro (plasma proteins [6]; [9]): 0.97 h

SMILES: NC1CCCCC1N.O=C([O-])C(=O)[O-].[Pt+2] (stereo not drawn) [S,S-(DACH)Pt oxalato]
- Time to development of altered SNCV (female Wistar rats [5]; rat, in vivo, po): 7.0 weeks
- Log kw [1]: 0.44 and 0.45
- t (h), half-life of binding to plasma proteins in vitro (plasma proteins [6]; rat, plasma): 1.21 h

SMILES: NC1CCCCC1N.[Cl-].[Cl-].[Cl-].[Cl-].[Pt+4] (stereo not drawn) [S,S-(DACH)PtCl4]
- Time to development of altered SNCV (female Wistar rats [5]; rat, in vivo, po): 7.0 weeks
- Log kw [1]: 0.41
- t (h), half-life of binding to plasma proteins in vitro (plasma proteins [6]; [9]): 0.78 h
